The source of these data is US8664160B2, “Fungicidal mixtures” (BASF SE, priority 2005, dated 2014).

For this experiment, the system named is bentgrass. The experiment is described as follows: Seed treatment of bentgrass: ground coverage by emerged plants. As to conditions: 20 g a.i./100 kg seed, greenhouse, humid conditions, 7 days after planting, untreated 10.8%. It is filed as in vivo. The text has this: Seeds of bentgrass were seed-treated with the products and concentrations listed. Triticonazol and Pyraclstrobin were used as 200 g/l FS-formulation. Metalaxyl als a 17.7% LS-formulation. Treated sees were planted at the day of treatment and then kept under humid conditions in the greenhouse. 7 days after plating the ground coverage by emerged plants were estimated in percentage.

`COCC(=O)N(c1c(C)cccc1C)[C@H](C)C(=O)OC` [Metalaxyl-M, metalaxyl-M]: the “% covered ground” value is 36.3%.
